Source: article PMC11171525 (Cells, 2024)
Like-named read-outs stand apart in the source and are kept apart here.

How the values were obtained:
CMs from lycophytes = details: substrate chorismate; ref [30]; cited from earlier work
PpCM2 = assay: CM activity assay, recombinant PpCM2 (disappearance of chorismate at 274 nm); assay type: biochemical, Pinus pinaster; details: for impact on activity (activation or inhibition), effector screening: threshold […] (Figure S2)
Protocol: (§1) Similarly, the effect on CM activity of decreasing concentrations of the amino acids Phe, Tyr, and Trp was determined.
(§2) To study their catalytic properties, P. pinaster PpCM1 and PpCM2 were functionally expressed in E. coli, including N-terminal His-tags, lacking the predicted chloroplast signal peptides, and were subsequently purified with Ni^2+-affinity chromatography.

CMs from mosses = details: substrate chorismate; ref [30]; cited from earlier work
PpCM1 = assay: CM activity assay, recombinant PpCM1 (disappearance of chorismate at 274 nm); assay type: biochemical, Pinus pinaster; details: for impact on activity (activation or inhibition), effector screening: threshold […] (Figure S2)
Protocol: as §1, §2

[1] = substrate chorismate, 50 mM Tris pH 8, 30 °C
[2] = substrate chorismate, turnover rate
[3] = 2 mM amino acid, 1 mM chorismate
[4] = activation of CM activity by Trp, read-out: EC50 (Trp)
[5] = inhibition of CM activity by Phe, read-out: EC50 (Phe)

**Q.** For `C=C(O[C@@H]1C=C(C(=O)O)C=C[C@H]1O)C(=O)O` [chorismate], which Kcat (CMs from lycophytes) is on record?
**A.** 18.8 s⁻¹

**Q.** What about the Km (PpCM2; [1]) of the same compound?
**A.** 1700 µM

**Q.** What about the Kcat (PpCM2; [2]) of the same compound?
**A.** 35 s⁻¹

**Q.** And the Kcat (CMs from mosses)?
**A.** 19.5 to 20.7 s⁻¹

**Q.** What about the Km (PpCM1; [1]) of the same compound?
**A.** 1600 µM

**Q.** And the Kcat (PpCM1; [2])?
**A.** 29.4 s⁻¹

**Q.** With `N[C@@H](Cc1c[nH]c2ccccc12)C(=O)O` [Trp, tryptophan] as the compound, how does the increase in activity (PpCM2; [3]) read?
**A.** 1.7 fold

**Q.** And the “impact on activity (activation or inhibition), effector screening” value (PpCM2; 2 mM amino acid)?
**A.** > 1.5 fold

**Q.** And the EC50 (PpCM2; [4])?
**A.** ~0.1 µM

**Q.** And the increase in activity (PpCM1; [3])?
**A.** 3.1 fold

**Q.** What about the “impact on activity (activation or inhibition), effector screening” value (PpCM1; 2 mM amino acid) of the same compound?
**A.** > 1.5 fold

**Q.** What about the EC50 (PpCM1; [4]) of the same compound?
**A.** ~0.1 µM

**Q.** For `N[C@@H](Cc1ccc(O)cc1)C(=O)O` [Tyr, tyrosine], which “reduction in activity compared to controls” value (PpCM2; [3]) is on record?
**A.** 10.1 fold

**Q.** And the “impact on activity (activation or inhibition), effector screening” value (PpCM2; 2 mM amino acid)?
**A.** > 1.5 fold

**Q.** And the “reduction in activity compared to controls” value (PpCM1; [3])?
**A.** 11.4 fold

**Q.** What about the “impact on activity (activation or inhibition), effector screening” value (PpCM1; 2 mM amino acid) of the same compound?
**A.** > 1.5 fold

**Q.** What does the source list for `N[C@@H](Cc1ccccc1)C(=O)O` [Phe, phenylalanine]?
**A.** reduction in activity compared to controls (PpCM2; [3]): 3 fold; impact on activity (activation or inhibition), effector screening (PpCM2; 2 mM amino acid): > 1.5 fold; retained activity (PpCM2; in the presence of 2 mM Phe): 30–35%; EC50 (PpCM2; [5]): 88 µM; reduction in activity compared to controls (PpCM1; [3]): 9.6 fold; impact on activity (activation or inhibition), effector screening (PpCM1; 2 mM amino acid): > 1.5 fold; EC50 (PpCM1; [5]): 36 µM
